The values that follow come from ChEMBL document CHEMBL1201862, “PubChem BioAssay data set” (2004).

One may read the EC50 as the midpoint of the concentration-response curve. One may read the AC50 as the concentration at which the activity in the assay is half-maximal. For orientation: IC50 means the point on the concentration scale where inhibition reaches its midpoint. The Ki is the equilibrium dissociation constant of an inhibitor or competing ligand from its target. The CC50 is the concentration at which the toxic effect on the cells reaches its halfway point.

The nature of assay [1]: alpha-synuclein stem-loop luciferase translation blockers – H4 neuroglioma cells, luminescence, confirmation (AID 1988). It is filed as functional, cell-based.
The target in assay [2] is T1, Microphthalmia-associated transcription factor (Homo sapiens, UniProt O75030).
T1 sequence (O75030 whole entry): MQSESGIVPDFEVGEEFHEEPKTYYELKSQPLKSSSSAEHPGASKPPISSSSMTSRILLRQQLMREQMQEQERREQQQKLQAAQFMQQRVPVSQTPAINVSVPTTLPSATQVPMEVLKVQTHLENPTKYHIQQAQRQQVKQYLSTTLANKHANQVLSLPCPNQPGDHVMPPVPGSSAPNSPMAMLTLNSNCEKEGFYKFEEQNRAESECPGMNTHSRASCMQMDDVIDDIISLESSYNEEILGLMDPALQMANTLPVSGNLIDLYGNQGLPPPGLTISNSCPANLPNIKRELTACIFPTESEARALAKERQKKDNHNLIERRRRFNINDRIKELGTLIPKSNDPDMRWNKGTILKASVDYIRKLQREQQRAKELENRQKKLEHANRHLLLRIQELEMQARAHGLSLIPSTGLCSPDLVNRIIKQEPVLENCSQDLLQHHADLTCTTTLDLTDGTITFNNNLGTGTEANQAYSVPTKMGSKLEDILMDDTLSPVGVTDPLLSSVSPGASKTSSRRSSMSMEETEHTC
Kind of assay: reducers of TRPM1 reporter luminescence, concentration series – cell-based, SK-MEL-5, cherry-picked, set 3, MITF inhibitor project, dose response (AID 493073).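 Note: SK-MEL-5 melanoma cells with luciferase driven by the MITF target TRPM1 promoter.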 The format is functional.

Assay [3] can be described thus: Luminescence Cell-Based Dose Response HTS to Identify Inhibitors of 5'UTR Stem-Loop Driven Prion Protein mRNA Translation in H4 Neuroglioblastoma Cells. [Related pubchem assays: 1827 (Project Summary), 1813 (Primary HTS)]. The format is functional.
A short description of assay [4]: alpha-synuclein stem-loop translation blockers – luminescence, H4 neuroglioblastoma cells, dose confirmation, confirmation (AID 2454).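 Note: H4 neuroglioblastoma cells carrying an alpha-synuclein 5'UTR luciferase reporter; potency for inhibition of the luciferase signal.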 The format is functional, cell-based.
The next assay is described as follows: cells. It is filed as functional, cell-based.
The nature of assay [5]: luciferase reporter signal reduction – luminescence, H4-C neuroglioblastoma cells, dose response (AID 2458).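 Note: H4 neuroglioblastoma cells stably carrying a luciferase reporter gene fusion.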 It is filed as functional, cell-based. (In general: Reporter assays use an easily measured gene product as a stand-in for the process of interest.)
Assay [6] in a line: luciferase reporter signal suppression in cells – H4 neuroglioma cells, luminescence, dose response (AID 1990). The format is functional, cell-based.
For a further assay, the system named is HeLa. Briefly: viability loss in HeLa cells – cell-based, 24 h, cherry-picked samples, cytotoxicity control, dose response (AID 504726).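 Note: potency for cytotoxicity as loss of luminescence signal.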 The settings on record: Homo sapiens. It is filed as functional.
The target of a further assay is Large T antigen (Simian virus 40, UniProt P03070). It is filed as functional, Betapolyomavirus macacae.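 Note: Confirmatory-stage PubChem screen for compounds that inhibit SV40 T antigen.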
Large T antigen, sequence (P03070 whole entry): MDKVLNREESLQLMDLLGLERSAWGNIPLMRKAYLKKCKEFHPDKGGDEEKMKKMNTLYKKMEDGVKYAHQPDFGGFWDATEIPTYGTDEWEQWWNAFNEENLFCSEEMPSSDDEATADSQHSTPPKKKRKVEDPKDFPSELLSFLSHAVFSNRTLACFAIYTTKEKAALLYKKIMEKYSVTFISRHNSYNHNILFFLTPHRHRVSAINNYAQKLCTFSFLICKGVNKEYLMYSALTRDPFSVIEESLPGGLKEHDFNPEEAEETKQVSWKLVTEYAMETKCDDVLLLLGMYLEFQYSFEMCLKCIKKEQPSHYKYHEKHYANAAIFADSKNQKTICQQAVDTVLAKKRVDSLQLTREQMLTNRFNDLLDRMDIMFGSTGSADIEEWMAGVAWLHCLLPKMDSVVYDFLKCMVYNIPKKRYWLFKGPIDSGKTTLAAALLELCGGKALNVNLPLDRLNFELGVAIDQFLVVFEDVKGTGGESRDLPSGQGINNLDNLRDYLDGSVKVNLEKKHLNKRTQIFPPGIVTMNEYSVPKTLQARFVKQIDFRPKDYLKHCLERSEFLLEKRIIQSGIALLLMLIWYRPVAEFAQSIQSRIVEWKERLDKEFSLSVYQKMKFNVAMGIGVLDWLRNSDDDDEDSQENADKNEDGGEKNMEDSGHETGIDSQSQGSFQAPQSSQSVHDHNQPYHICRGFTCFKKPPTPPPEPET
The nature of assay [7]: HEK-293T cell viability reduction – luminescence, B-cell screen hits, cytotoxicity control for BCR NF-kB inhibitor project, dose response (AID 489021).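 Note: HEK-293T cells carrying an NF-kB luciferase reporter; cells exposed to compound for about 14 hours before viability readout.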 The format is functional, cell-based.
Assay [8] deals with T2, RNA-binding protein pos-1 (Caenorhabditis elegans, UniProt G5EF15).
T2 sequence (G5EF15 whole entry): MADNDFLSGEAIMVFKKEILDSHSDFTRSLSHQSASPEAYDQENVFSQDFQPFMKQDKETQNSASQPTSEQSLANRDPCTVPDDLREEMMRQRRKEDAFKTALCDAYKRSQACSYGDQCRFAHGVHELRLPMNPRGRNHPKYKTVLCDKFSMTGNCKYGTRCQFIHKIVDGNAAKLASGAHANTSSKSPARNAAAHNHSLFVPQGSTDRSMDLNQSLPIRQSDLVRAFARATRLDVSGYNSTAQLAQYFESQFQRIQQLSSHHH
Briefly: disruptors of C. elegans POS-1 RNA interaction – biochemical, fluorescence polarization, dose response (AID 1964).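 Note: purified POS-1 fused to maltose binding protein made in E. coli; potency of compounds blocking POS-1 binding to fluorescent RNA.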

Another assay deals with T3, fMet-Leu-Phe receptor (Homo sapiens, UniProt P21462).
T3 sequence (P21462 whole entry): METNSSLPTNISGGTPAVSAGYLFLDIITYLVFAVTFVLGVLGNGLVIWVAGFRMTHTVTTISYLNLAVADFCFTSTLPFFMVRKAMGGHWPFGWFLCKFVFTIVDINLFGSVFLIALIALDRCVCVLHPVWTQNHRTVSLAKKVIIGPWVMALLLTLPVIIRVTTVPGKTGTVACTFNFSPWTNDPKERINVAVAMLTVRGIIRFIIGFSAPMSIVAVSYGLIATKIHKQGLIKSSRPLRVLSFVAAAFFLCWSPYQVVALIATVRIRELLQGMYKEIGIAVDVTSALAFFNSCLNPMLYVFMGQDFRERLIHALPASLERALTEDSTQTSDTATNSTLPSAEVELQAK
Briefly: formyl peptide receptor binders – dose response (AID 519). The format is functional.

Assay [9] deals with T4, Zinc finger protein mex-5 (Caenorhabditis elegans, UniProt Q9XUB2).
T4 sequence (Q9XUB2 whole entry): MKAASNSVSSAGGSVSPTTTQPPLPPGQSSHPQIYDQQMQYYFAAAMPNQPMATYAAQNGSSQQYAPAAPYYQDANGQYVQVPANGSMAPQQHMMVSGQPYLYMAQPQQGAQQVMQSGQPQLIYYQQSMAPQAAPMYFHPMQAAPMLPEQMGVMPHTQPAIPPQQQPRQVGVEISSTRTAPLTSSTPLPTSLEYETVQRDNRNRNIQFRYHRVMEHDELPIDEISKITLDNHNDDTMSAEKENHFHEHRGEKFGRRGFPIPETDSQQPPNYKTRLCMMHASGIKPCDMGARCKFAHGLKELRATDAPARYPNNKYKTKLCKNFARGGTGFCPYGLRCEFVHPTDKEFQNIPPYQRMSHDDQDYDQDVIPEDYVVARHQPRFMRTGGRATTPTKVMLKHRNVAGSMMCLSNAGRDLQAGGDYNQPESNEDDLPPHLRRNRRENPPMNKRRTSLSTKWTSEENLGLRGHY
Kind of assay: potency of MEX-5 RNA-binding blockers – biochemical, C. elegans, fluorescence polarization, dose response (AID 1960).

For the next assay, the target named is T5, ORF 73 (Human herpesvirus 8, UniProt O40947).
T5 sequence (O40947 whole entry): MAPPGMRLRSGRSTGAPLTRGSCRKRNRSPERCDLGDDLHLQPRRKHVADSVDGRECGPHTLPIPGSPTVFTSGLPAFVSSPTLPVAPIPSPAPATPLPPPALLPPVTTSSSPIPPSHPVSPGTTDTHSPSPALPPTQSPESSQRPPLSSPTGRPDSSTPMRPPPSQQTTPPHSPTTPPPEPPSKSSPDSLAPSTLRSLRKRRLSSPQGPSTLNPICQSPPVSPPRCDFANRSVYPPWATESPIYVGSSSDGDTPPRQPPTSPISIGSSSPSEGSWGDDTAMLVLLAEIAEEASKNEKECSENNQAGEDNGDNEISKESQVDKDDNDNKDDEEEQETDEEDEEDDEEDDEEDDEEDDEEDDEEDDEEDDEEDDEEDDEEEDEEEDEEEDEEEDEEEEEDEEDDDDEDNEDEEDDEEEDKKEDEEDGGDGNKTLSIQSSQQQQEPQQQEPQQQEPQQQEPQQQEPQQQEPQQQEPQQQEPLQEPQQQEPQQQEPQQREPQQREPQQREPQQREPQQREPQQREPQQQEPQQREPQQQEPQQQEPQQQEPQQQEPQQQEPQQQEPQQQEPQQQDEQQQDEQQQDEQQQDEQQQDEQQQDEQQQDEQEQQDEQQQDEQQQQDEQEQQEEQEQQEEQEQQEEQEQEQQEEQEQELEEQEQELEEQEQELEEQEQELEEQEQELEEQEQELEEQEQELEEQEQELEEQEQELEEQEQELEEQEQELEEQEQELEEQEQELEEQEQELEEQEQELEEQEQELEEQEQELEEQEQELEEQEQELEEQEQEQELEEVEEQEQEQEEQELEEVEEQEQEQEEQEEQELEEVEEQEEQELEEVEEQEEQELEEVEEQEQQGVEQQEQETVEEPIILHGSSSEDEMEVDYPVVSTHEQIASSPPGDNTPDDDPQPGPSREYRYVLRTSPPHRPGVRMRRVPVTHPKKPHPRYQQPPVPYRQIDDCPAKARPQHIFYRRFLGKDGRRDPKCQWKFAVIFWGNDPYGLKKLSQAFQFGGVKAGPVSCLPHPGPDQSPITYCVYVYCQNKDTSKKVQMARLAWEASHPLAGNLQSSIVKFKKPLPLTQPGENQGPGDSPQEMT
Briefly: KSHV LANA DNA-binding disruption – biochemical, fluorescence polarization, cherry-picked samples, dose response (AID 504725).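 Note: fluorescence polarization of a labeled DNA duplex reporting LANA DNA binding; potency is for inhibitors that block LANA binding to the DNA.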 On the set-up: species or system Human gammaherpesvirus 8. (In general: Polarisation of emitted light reports the rotation of a fluorescent probe.)

Assay [10] concerns the target 72 kDa type IV collagenase (Homo sapiens, UniProt P08253). Briefly: Dose Response validation of uHTS RPN11 inhibitor hits using a MMP-2 Fluorescence assay. The format is functional.
For assay [11], the target named is T6, Voltage-gated N-type calcium channel alpha-1B subunit/Amyloid beta A4 precursor protein-binding family A member 1 (Homo sapiens, UniProt Q00975+Q02410). It is filed as protein assay.
T6 sequence (Q00975 whole entry): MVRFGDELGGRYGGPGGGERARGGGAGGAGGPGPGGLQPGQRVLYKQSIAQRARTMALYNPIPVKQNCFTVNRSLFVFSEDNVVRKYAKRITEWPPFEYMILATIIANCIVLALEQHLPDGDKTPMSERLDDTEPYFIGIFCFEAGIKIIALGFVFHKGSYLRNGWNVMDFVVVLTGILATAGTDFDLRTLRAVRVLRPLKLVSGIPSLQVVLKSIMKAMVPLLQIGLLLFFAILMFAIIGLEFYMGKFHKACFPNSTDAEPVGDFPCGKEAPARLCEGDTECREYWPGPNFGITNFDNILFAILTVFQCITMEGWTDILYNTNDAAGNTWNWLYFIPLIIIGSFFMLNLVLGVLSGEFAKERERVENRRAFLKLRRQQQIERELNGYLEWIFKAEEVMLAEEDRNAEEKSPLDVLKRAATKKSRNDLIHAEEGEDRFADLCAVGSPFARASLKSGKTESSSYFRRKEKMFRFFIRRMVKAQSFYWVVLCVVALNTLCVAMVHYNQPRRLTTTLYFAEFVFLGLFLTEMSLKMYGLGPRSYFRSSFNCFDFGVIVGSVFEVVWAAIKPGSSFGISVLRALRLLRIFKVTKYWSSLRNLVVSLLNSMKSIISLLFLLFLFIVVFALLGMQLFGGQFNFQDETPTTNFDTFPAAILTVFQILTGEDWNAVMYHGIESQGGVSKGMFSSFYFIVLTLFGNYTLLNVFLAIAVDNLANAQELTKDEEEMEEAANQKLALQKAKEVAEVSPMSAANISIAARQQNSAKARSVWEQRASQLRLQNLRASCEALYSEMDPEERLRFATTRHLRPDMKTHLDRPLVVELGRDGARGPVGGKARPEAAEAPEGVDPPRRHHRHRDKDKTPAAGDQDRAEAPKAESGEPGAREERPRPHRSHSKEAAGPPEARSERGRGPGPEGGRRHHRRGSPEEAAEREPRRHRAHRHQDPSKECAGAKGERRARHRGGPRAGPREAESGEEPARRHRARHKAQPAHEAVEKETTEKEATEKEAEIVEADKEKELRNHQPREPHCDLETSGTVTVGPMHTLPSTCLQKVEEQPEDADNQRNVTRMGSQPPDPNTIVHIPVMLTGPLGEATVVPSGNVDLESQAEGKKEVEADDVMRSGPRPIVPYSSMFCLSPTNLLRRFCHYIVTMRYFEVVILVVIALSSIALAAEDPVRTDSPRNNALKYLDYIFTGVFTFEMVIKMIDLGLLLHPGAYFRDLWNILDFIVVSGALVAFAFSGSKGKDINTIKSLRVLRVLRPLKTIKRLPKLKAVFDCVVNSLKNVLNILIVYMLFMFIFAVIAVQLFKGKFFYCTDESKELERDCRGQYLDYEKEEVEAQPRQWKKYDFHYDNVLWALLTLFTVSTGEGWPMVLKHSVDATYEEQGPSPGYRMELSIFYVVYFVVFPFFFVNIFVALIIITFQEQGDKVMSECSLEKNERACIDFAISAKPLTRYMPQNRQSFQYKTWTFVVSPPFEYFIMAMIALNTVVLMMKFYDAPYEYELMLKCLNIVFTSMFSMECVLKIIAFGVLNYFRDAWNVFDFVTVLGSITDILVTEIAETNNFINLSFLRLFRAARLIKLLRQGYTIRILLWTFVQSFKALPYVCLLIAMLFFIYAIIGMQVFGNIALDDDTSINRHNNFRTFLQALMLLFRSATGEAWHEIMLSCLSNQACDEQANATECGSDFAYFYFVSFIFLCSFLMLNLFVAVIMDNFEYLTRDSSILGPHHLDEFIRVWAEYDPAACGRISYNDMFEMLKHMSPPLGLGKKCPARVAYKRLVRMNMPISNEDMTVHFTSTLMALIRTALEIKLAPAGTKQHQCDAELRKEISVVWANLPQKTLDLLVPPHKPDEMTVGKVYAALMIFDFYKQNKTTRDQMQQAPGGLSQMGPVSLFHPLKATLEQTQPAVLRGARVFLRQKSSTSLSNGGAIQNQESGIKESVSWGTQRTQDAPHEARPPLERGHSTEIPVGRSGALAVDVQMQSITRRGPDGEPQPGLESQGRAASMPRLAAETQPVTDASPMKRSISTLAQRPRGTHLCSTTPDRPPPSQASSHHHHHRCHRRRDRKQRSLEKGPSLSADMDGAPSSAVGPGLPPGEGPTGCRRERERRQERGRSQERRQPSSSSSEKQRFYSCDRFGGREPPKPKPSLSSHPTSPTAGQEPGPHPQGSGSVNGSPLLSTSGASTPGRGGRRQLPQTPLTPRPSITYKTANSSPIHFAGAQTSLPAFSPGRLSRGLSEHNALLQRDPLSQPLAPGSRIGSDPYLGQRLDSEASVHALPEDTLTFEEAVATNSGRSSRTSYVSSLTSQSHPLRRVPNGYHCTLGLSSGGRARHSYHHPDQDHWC
T6 sequence (Q02410 whole entry): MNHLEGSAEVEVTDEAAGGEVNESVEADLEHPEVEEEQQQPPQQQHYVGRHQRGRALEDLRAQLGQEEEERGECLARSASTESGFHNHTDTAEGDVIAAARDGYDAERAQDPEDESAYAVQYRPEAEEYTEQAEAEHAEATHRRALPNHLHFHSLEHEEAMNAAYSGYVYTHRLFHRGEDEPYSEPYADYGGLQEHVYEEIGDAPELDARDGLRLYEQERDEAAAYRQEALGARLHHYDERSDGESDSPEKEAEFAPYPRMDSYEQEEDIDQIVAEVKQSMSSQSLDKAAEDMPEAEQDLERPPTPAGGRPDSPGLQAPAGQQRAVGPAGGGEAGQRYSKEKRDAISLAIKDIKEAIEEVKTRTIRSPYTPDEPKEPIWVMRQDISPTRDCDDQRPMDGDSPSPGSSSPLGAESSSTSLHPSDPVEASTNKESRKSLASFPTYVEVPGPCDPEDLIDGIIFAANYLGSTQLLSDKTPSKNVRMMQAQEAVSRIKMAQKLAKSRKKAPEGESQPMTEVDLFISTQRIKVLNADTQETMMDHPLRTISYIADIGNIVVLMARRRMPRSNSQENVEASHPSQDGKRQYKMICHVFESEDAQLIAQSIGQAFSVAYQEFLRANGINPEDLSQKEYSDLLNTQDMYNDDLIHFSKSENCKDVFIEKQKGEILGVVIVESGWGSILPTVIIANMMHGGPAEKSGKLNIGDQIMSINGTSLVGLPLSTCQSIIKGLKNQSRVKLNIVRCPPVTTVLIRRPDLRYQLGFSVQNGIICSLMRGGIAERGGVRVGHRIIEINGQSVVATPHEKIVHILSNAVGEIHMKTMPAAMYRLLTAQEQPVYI
For a further assay, the target named is Cytochrome P450 3A4 (Homo sapiens, UniProt P08684).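 Note: CYP3A4 tested as one member of a cytochrome P450 panel screen.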
A further assay addresses NS3 (Hepatitis C virus, UniProt A3EZJ3). Kind of assay: PubChem AID 2173. On the set-up: species or system Hepacivirus hominis.
Assay [12] addresses Induced myeloid leukemia cell differentiation protein Mcl-1 (Homo sapiens, UniProt Q07820). The format is functional.
The target of assay [13] is T6, Voltage-gated N-type calcium channel alpha-1B subunit/Amyloid beta A4 precursor protein-binding family A member 1. The format is protein assay. This is another data set of the same source.
The target in assay [14] is 26S proteasome non-ATPase regulatory subunit 14 (Homo sapiens, UniProt O00487). Briefly: inhibition of proteasome subunit RPN11 – biochemical, fluorescence polarization, uHTS hits, confirmation (AID 602368). The format is functional.
26S proteasome non-ATPase regulatory subunit 14, sequence (O00487 whole entry): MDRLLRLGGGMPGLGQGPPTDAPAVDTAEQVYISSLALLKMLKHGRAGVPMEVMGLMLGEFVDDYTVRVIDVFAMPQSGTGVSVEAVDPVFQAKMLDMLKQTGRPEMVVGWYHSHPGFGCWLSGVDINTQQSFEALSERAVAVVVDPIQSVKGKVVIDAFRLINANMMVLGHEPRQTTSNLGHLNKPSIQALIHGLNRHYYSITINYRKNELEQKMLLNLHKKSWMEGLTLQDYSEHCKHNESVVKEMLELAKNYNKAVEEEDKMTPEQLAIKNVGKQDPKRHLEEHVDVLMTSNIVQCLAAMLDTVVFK
Another assay deals with Cytochrome P450 2C19 (Homo sapiens, UniProt P33261). Kind of assay: Cytochrome panel assay with activity outcomes. Panel member name: p450-cyp2c19 Compounds with AC50 equal or less than 10 uM are considered active. It is filed as functional. To be noted: read-out: AC50.
Cytochrome P450 2C19, sequence (P33261 whole entry): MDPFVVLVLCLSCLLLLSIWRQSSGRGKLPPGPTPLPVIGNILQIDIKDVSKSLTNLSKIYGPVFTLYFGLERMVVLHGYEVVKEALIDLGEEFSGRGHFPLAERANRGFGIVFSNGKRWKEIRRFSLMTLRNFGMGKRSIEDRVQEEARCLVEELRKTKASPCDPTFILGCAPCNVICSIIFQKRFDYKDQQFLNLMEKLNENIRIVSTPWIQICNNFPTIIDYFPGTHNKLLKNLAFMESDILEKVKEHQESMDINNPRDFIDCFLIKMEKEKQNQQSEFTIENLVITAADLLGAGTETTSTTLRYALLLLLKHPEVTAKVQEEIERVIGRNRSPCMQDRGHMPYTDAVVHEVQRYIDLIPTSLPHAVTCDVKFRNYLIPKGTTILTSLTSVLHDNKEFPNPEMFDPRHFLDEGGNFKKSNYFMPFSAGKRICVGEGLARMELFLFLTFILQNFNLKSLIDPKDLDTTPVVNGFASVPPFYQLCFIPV
A further assay deals with Prothrombin (Bos taurus, UniProt P00735). Kind of assay: thrombin protease inhibitors – biochemical, fluorescence polarization, uHTS hits, dose response (AID 602369). The format is functional.
A short description of assay [15]: A Cell Based Secondary Assay To Explore Cytotoxicity of Compounds that Sensitize Mycobacterium Tuberculosis to Beta-Lactam Antibiotics. It is filed as functional.
A short description of assay [16]: HEK-293T viability loss after treatment – luminescence, T-cell screen hits, cytotoxicity control for TCR NF-kB inhibitor project, dose response (AID 489026).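 Note: cells exposed to compound about 14 hours before the viability readout.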 It is filed as functional, cell-based.

Structures are written as SMILES. Activity calls are given as the source filed them. Where only a bound is given, the exact number is not on record here.

Induced myeloid leukemia cell differentiation protein Mcl-1, sequence (Q07820 whole entry): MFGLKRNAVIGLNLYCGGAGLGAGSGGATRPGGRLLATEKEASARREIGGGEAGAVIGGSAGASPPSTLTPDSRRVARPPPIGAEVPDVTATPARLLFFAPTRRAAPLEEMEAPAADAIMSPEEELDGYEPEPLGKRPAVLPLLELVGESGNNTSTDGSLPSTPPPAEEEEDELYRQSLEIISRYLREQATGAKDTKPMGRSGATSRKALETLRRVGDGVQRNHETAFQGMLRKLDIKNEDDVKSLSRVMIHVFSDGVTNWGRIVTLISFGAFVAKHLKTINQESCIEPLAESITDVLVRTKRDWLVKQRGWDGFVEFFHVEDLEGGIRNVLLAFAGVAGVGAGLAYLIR

`Nc1ccc(-c2ncc(-c3ccccc3)o2)cc1`: the EC50 in [1] is < 0.1 µM (active); in [3], < 0.1 µM (active); in [4] it was 0.07 µM (active); in “cells”, 0.178 µM (active); in [5], 0.044 µM (active); in assay [6], < 0.1 µM (active). Also, the AC50 in assay [2] is 0.171 µM (active).
As for `Cc1cc(N)ccc1N=Nc1c(C)n(C)n(-c2ccccc2)c1=O`, the AC50 in the assay with HeLa was 285 µM (active). Further, at Large T antigen, the IC50 is 33.9 µM (active).
For `COc1ccc(-c2noc(N3CCC(C(=O)Nc4cccc(OC)c4)CC3)n2)cc1`, in assay [7], the IC50 is > 80 µM (inactive).
As for `COc1ccc(C2C(C(=O)c3cccs3)=C(O)C(=O)N2c2nnc(C)s2)cc1OC` (stereo not drawn), the AC50 is > 350 µM (inactive) with HeLa and 17.5 µM (active) at ORF 73. For the same compound, the figures for the EC50 in [8] and in [9] were 7.2 µM (active) and 5.19 µM (active), respectively. Also, the Ki at fMet-Leu-Phe receptor is > 66.7 µM (inactive).
With `CCOC(=O)N1CCN(CC(=O)Nc2ccc([N+](=O)[O-])cc2C(=O)Nc2ccccc2F)CC1`, the IC50 in [7] was 51.6 µM (inactive).
Consider `COc1cc2cc3c(N)c(C(=O)Nc4sc(C)c(C)c4C#N)sc3nc2cc1OC`, for which the IC50 was 8.14 µM (active) in assay [10]; > 50 µM (inactive) in [11]; > 36.3 µM (not active) at NS3; 1.26 µM (active) in assay [12]; 11.8 µM (active) in assay [13]; 48.3 µM (active) in [14]. The IC50 at Prothrombin was 25.8 µM (active). Moreover, the values for the half-maximal activity concentration (AC50) on Cytochrome P450 3A4 and at Cytochrome P450 2C19 were 8.91 µM (inconclusive) and 15.8 µM (inconclusive), respectively.
Regarding `CCCc1nc(SC)nc(O)c1C`, the AC50 with HeLa was 81.7 µM (active).
Turning to `CC(C)(C)c1ccc(OCc2ccc(C(=O)N/N=C3\CC4CC=CC34)cc2)cc1` (stereo not drawn), the CC50 in [15] was > 40 µM (active).
For the compound `COc1ccc(-c2ccc(N(C)C)cc2)cc1[C@H]1[C@H]2C=CC[C@@H](C)[C@@H]2C(=O)N1Cc1ccccc1`, the IC50 in assay [7] was > 80 µM (inactive).
On to `COc1cc(C(=O)Nc2cccc(-c3cn4cccnc4n3)c2)cc(OC)c1OC`, for which the CC50 in assay [15] is > 40 µM (active).
On the same count and under the same terms, the value for `COc1cc2nc(N3CCN(C(=O)OCc4ccccc4)[C@H](C(=O)NC(C)(C)C)C3)nc(N)c2cc1OC` was 29.3 µM (active); that for `Cc1cc(C(=O)CN2C(=O)NC(c3ccccc3)(c3ccccc3)C2=O)c(C)n1Cc1ccccc1` was > 40 µM (active).
Take `COc1cc(C(=O)N2CCN(c3cc(Cl)ccc3Cl)CC2)cc(OC)c1OC`: the EC50 in assay [1] was < 0.1 µM (active); in [3] it was 0.164 µM (active); in assay [4], 0.575 µM (active); in the assay “cells”, 0.457 µM (active); in assay [5], 0.352 µM (active); in assay [6], 0.148 µM (active). Further, the IC50 in [16] was > 80 µM (inactive).
